We go through one substance from patent publication US6375979B2 (Somerset Pharmaceuticals, Inc., priority 1995, dated 2002).

Read-outs that look alike come from different tables or passages of the source.

The target of this experiment is T1, MAO-A (Rattus norvegicus, UniProt P21396).
T1 sequence (P21396 1-526): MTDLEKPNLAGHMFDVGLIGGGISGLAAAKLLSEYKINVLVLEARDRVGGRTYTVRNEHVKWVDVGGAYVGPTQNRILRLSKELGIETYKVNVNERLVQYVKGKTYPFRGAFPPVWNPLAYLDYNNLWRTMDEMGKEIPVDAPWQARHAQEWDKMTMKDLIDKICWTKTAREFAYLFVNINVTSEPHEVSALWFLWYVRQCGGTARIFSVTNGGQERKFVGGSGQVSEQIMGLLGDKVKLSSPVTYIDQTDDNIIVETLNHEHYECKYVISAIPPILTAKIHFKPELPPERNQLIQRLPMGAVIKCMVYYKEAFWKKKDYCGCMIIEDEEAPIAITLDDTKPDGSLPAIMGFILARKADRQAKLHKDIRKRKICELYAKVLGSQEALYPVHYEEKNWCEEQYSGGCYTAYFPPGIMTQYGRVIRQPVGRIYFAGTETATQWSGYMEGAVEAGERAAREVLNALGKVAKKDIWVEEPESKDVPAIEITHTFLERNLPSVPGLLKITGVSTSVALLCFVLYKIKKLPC

As a reminder, the inhibition is the relative decrease from the control value, in per cent. A higher inhibition goes with a response far below the control. Regarding desmethylselegiline [R(−)DMS], the inhibition reads like this: (0.3 µM) 0%; (1 μM) 0.7%; (3 µM) 4.1%; (10 μM) 11.8%; (100 μM) 56.1%.
